Values joined by “and” are separate entries in the source; they are usually repeats but may differ in a detail not shown here. Equal values may be shown once. “Also recorded” adds a separate entry of the source. Starred links: 1 amine or outer side, 2 acyl side, 3 side chain; linkers in the order of their positions; H or OH if unused. Non-standard residues stand in square brackets, D forms with d. Residues, ends and D or L forms follow the SMILES beside them. *: point of attachment. hPhe = N[C@@H](CCc1ccccc1)C(=O)O; Morpholide = C1CN(*)CCO1; CO = O=C([*:1])[*:2]; CH2F = FC*
Assays:
[1] = target: T1, cathepsin B (Rattus norvegicus, UniProt P00787); experiment: Cathepsin B activity in living CC531 colon cancer cells (CSLM, (Z-Arg)^2 -cresyl violet); format: cell-based
T1 sequence (P00787 80-333): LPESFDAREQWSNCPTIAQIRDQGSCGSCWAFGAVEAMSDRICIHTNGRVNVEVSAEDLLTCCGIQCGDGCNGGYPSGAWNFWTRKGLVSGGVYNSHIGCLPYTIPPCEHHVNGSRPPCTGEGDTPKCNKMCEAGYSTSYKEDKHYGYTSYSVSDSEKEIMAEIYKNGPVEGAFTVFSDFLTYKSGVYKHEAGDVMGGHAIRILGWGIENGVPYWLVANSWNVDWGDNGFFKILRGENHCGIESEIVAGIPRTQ
Description: An established rat colon carcinoma cell line, CC531, was used for all experiments. The parental cell line was obtained from a 1,2-dimethylhydrazine-induced moderately differentiated and weakly immunogenic colon adenocarcinoma in WAG-Rij rats (44). Cells were cultured in vitro at 37° C. as monolayers in Dulbecco's modification of Eagle's medium (ICN Biomedicals, Irvine, Ayrshire, UK) supplemented with 10% (w/v) fetal bovine serum, 2 mM glutamine, 100 IU penicillin/ml and 100 μg streptomycin/ml. Cells were washed in PBS and, after detachment by scraping and centrifugation (250 g, room temperature, 10 min), a single cell suspension at a final concentration of 1×10^6 cancer cells in 50 μl of PBS was obtained with a viability of at least 95% (45,46). Cell suspension were either used for cytochemical purposes or for in vivo administration to induce metastases in the liver.
Cathepsin B activity was detected in real-time in living CC531 cells and freshly prepared living rat hepatocytes after isolation by collagenase perfusion of livers of male mature rats after 24 h of starvation (47). At time point zero, cell preparations were diluted 20-fold in PBS containing either 10 μM (Z-Arg)^2 -cresyl violet (Enzyme Systems Products, Dublin, Calif.) as fluorogenic substrate for cathepsin B (48) or 10 μM substrate and 20 μM FMK (Protek, Dublin, Calif.), as selective cathepsin B inhibitor (40,41). The fluorogenic substrate is not fluorescent but after proteolytic cleavage, liberated cresyl violet is fluorescent. Synthesis of the substrate is described elsewhere in Ref. 48. The substrate was dissolved first in dimethyl formamide (final concentration in the incubation medium was 1% (v/v)). An aliquot of 100 μl of the cell suspensions was brought into a well formed by a stainless steel ring attached to a glass slide (49). Images of cells were captured in real-time with a Leica CSLM fitted to a Leica Fluovert inverted microscopic equipped with a PL APO oil-immersion objective (×63, NA 1.40). Excitation was performed at a wavelength of 560 nm and fluorescence was captured at greater than 580 nm. Excitation with the use of green light is harmless to living cells. The pinhole aperture was set at 100 giving an optimized image (50). With fixed pinhole, filter combination and a laser power setting adjusted to give minimal fading, the photomultiplier gain and photometric offset were optimized. Cells were subjected to optical serial sectioning after each 60 s of incubation up to 300 s. Images in the X-Y plane were recorded with intervals of 0.5 μm in the Z direction. For analysis, each optical section was averaged eight times. Images were recorded in a 512×512 pixel format. The size of each pixel represented 0.015 μm^2 in the object. […]

[2] = Body weight and liver weight of FMK-treated rats; format: in vivo, rat; settings: 20 mg FMK/kg daily oral 14 days
Description: (§1) Sixteen rats were treated orally with 20 mg FMK per kg body weight dissolved in PBS and 5% dimethylformamide daily for 14 days starting one week before administration of the CC531 cells and continuing until sacrifice. Oral administration was performed directly into the stomach with a plastic tube attached to a syringe. Dosage and type of treatment were selected on the basis of previous experiments in which rats were treated with FMK-related inhibitors of cathepsins (34,40,53). The other 16 animals were treated similarly with PBS and dimethylformamide only. The LD50 of this type of FMK is at least 20-fold higher than the dosages used in the present experiment (40,53).
Seven days after administration of CC531 cells, the animals were weighed and sacrificed with an overdose of sodium pentobarbital. Livers were removed immediately, the individual lobes were weighed and dissected and cut into small pieces (up to 5 mm thick) according to a rigid dissection scheme. The left lateral lobe was cut into eight pieces, the median lobe into nine pieces, the right lateral and caudate lobes into four pieces. […]
Significant differences between the caudate lobe and the other liver lobes with respect to the endothelial compartment or distribution patterns of extracellular matrix compounds (see Table 1 for specification of parameters investigated) could not be detected either.

[3] = target: T1, cathepsin B; experiment: Cathepsin B activity in homogenates of liver lobes of rats after oral FMK treatment; format: in vivo; settings: 20 mg FMK per kg body weight daily, 14 days, all four lobes
Description: as §1
Cathepsin B activity was determined in homogenates obtained from each individual liver lobe of all rats according to Cox and Eley (56) with the use of the fluorogenic substrate CBZ-Ala-Arg-Arg-7-amino-4-trifluoromethylcoumarin (Enzyme Systems Products, Dublin, Calif.).
Whether or not the two weeks of oral treatment with the inhibitor had the same effect on cathepsin B activity in all liver lobes was determined.

SMILES: O=C(CF)[C@H](CCc1ccccc1)NC(=O)[C@H](Cc1ccccc1)NC(=O)N1CCOCC1 [FMK, Mu-Phe-homoPhe-fluoro-methylketone] ({Morpholide-CO}-Phe-[hPhe]-CH2F)
- inhibition of intracellular cathepsin B activity ([1]; CC531 cells, 20 μM FMK): not intracellular cathepsin B activity; also recorded: Activity was present intracellularly
- inhibition of plasma membrane-bound (extracellular) cathepsin B activity ([1]; CC531 cells, 20 μM FMK, 10 μM (Z-Arg)^2 -cresyl violet, 5 min, room temperature): inhibited only extracellular; also recorded: inhibited the plasma membrane-bound activity completely; also recorded: Plasma membrane-bound activity was inhibited
- uptake by living cells ([1]; inferred from lack of inhibition of intracellular activity): had not been taken up by the living cells
- effect on body weight, total liver weight or weight of individual lobes [2]: did not affect body weight, total liver weight or the weight of the individual lobes
- inhibition of cathepsin B activity in liver lobes [3]: ~50% and 51±14%
